Entries after “also recorded” stand apart in the source; their conditions may differ.
How the values were obtained:
[1] = system: primary limb bud cells (PLBCs); assay: Cell death by trypan blue staining in PLBCs; assay type: cell-based, chicken; conditions: for effect on juglone-induced cell death in PLBCs: pre-treatment for one hour, juglone 5 μM two hours; for effect on BMP4-induced PCD in PLBCs: rh BMP4 300 ng/ml; for effect on thalidomide-induced cell death in PLBCs: thalidomide 10 μg/ml, six hours
Description: (§1) Primary limb bud cells (PLBCs) were isolated from 60 pooled wing and hindlimb buds of HH stages 23/24 embryos. Fibroblasts were gained from HH stage 34 chicken embryos or from 13.5 d.p.c. mouse embryos. Human embryonic fibroblasts were provided by Matthias Maass (2). Before adding reagents, all cell types were cultured for 16 hours in D-MEM (Gibco) plus 10% fetal calf serum (FCS) and 2% chicken serum. Treatment with thalidomide, phthalimide, recombinant human (rh) BMP4 (300 ng/ml; R&D Systems), juglone (5 μM; Sigma), recombinant mouse Noggin (30, 300, 1000 ng/ml in FIG. 4B; 300 ng/ml in FIGS. 4C and 6A), anti-human-DKK1 antibody (35, 350 and 1000 ng/ml in FIG. 4B; 350 ng/ml in FIGS. 4C and 6A), LiCl (3, 30, 60 mM in FIG. 4B; 30 mM in FIGS. 4C, 6A and 6C) and/or (2Z,3E)-6-Bromoindirubin-3-oxime (BIO, Gsk3-Inhibitor IX; 50, 500, 1000 nM in FIG. 4B; 500 nM in FIG. 6A; 50 and 500 nM in FIG. 6C; Calbiochem) were performed in Optimem1 (Invitrogen) plus 1% FCS. Unless otherwise noted, all treatments with thalidomide and rh-BMP4 and associated controls were done for six hours. Inhibitors were applied once at the beginning of incubation with the exception of LiCl that was added 150 minutes before harvesting the cells for further analyses. Pre-treatment with phenyl-N-t-butylnitrone (PBN; 2 mM; Sigma) was performed for one hour. Incubations with juglone were performed for two hours, if applicable, after a pre-treatment with PBN, Noggin, anti-Dkk1 antibody, LiCl or Gsk3-Inhibitor IX for one hour.
(§2) Cell death in PLBCs, CEFs, MEFs and HEFs was detected by staining with trypan blue (0.1% (w/v) in PBS; Sigma) for 90 seconds. Cells were counted in a counting chamber to determine the ratio of dead to live cells.

[2] = system: chicken embryos; assay: Inhibitors counteracting thalidomide-induced limb truncations and microphthalmia in chicken embryos; assay type: in vivo; conditions: for embryos with limb truncations, thalidomide-treated plus inhibitor: Noggin 100 ng/embryo or LiCl 0.6 mg/embryo at HH stages 17-19
Description: (§3) Fertilized eggs were purchased from Deindl GmbH, Rietberg-Varensell. They were incubated at 38° C. in a humidified incubator, windowed after one day and staged according to Hamburger and Hamilton (HH stage). Racemic thalidomide (Celgene), thalidomide enantiomers or phthalimide (Sigma) were dissolved in DMSO at 5 mg/ml and further diluted in PBS. Embryos were exposed to drugs by dropping 15 μg-3 mg thalidomide or phthalimide per kg egg weight (about 1-200 μg per embryo) in 50 μl DMSO/PBS as a single dose at HH stages 0-13 onto the embryo. Thalidomide (50 μg) or phthalimide (50 μg) in 10 μl DMSO was injected into the extra-embryonic blood vessels of HH 19 stage embryos. LiCl (99% pure, Sigma) was dissolved in sterile PBS. LiCl (0.1, 0.6 or 3.2 mg) was applied at HH stages 17-19 by dropping 500 μl of a 5 mM, 28 mM or 151 mM LiCl solution onto the embryo. Recombinant Noggin, Dkk1 specific goat IgG (R&D Systems) or serum of non-immunized goats (Sigma) was dissolved in 0.1% BSA/0.01% Fast Green/PBS. Noggin (10 or 100 ng), Dkk1 specific goat IgG (5 or 50 ng) or serum of non-immunized goats (50 ng) was applied to a single embryo at HH stages 17-19 by injecting a 10 μl solution through the extra-embryonic membranes.
(§4) The morphology of the limbs was studied in specimens fixed in 5% trichloroacetic acid and stained for cartilage with alcian green as described (3).

[3] = system: limb buds of HH stages 23/24 chicken embryos; assay: Whole mount TUNEL staining of limb buds; assay type: in vivo; conditions: LiCl 0.6 mg per embryo at HH stages 17-19, 19 of 80
Description: TUNEL staining was performed as described (7).

[4] = system: primary chicken embryonic fibroblasts (CEFs); assay: Cell death by trypan blue staining in CEFs; assay type: cell-based; conditions: data not shown
Description: as §1, §2

[5] = system: human embryonic fibroblasts (HEFs); assay: Cell death by trypan blue staining in HEFs; assay type: cell-based; conditions: for effect on thalidomide-induced cell death in HEFs: Noggin 300 ng/ml, anti-DKK1 antibody 350 ng/ml, LiCl 30 mM
Description: as §1, §2

[6] = system: Bmp4 and Dkk1 expression in PLBCs; assay: sqRT-PCR of Bmp4 and Dkk1 expression in PLBCs; assay type: cell-based, chicken
Description: as §1
(§5) RNA isolation, semi-quantitative RT-PCRs and whole mount in situ hybridizations were performed according to standard protocols that are well known within the art. RNA was isolated using TRIZOL (Gibco BRL) followed by DNAseI digestion. First strand synthesis was carried out with the Expand RT System (Roche) according to the manufacturer's instructions. PCR amplification was carried out primers and conditions within the knowledge of a person having skill in the relevant art. Quantifications were performed using NIH Image 1.62.

[7] = system: Bmp4 and Dkk1 expression in HEFs; assay: sqRT-PCR of Bmp4 and Dkk1 expression in HEFs; assay type: cell-based, human
Description: as §1, §5

[8] = system: chicken embryos; assay: Thalidomide-induced limb truncations and microphthalmia in chicken embryos; assay type: in vivo; conditions: applied to chicken embryos, control reagent
Description: as §3, with “LiCl (99% pure, Sigma) was dissolved in sterile PBS. LiCl (0.1, 0.6 or 3.2 mg) was applied at HH stages 17-19 by dropping 500 μl of a 5 mM, 28 mM or 151 mM LiCl solution onto the embryo.” left out
as §4

[9] = system: Dkk1 and Bmp expression in limb buds; assay: sqRT-PCR and whole mount in situ hybridization of Dkk1 and Bmp expression in limb buds; assay type: in vivo, chicken; conditions: data not shown
Description: as §5

[10] = system: Wnt/β-catenin signaling; assay: TOPflash luciferase reporter assay in CEFs; assay type: cell-based, chicken; conditions: Wnt3a-conditioned medium, 24 hours
Description: Plasmids with wild type (TOPflash) or mutated (FOPflash) LEF/TCF binding sites (5) upstream of a luciferase reporter gene were transiently transfected into CEFs using Lipofectamine (Invitrogen). Following transfection for 24 hours, the cells were exposed to Wnt3a-conditioned medium or to control medium (6) with or without thalidomide or recombinant human DKK1 (150 ng/ml, R&D Biosystems) for 24 hours prior to luciferase assay. Values were normalized for transfection efficiency by co-transfection with a pSV-β-galactosidase vector and for the number of living cells. Luciferase activity was measured using the Dual-Light System (Applied Biosystems).

`O=C1Nc2cc(Br)ccc2/C1=C1/Nc2ccccc2/C1=N\O` [Gsk3-Inhibitor IX, (2Z,3E)-6-Bromoindirubin-3-oxime] was tested, and the “effect on juglone-induced cell death in PLBCs” value [1] was “could be inhibited”, the “effect on BMP4-induced PCD in PLBCs” value [1] was “counteracted BMP4-induced PCD in a dose-dependent manner” and the “effect on thalidomide-induced cell death in PLBCs” value [1] was “completely abrogate”.

`[Cl-].[Li+]` [LiCl] was tested, and the “rescue of thalidomide-induced microphthalmia” value ([2]; 0.6 mg LiCl) was “did not rescue”, the “embryos with thalidomide-induced microphthalmia plus LiCl” value ([2]; 3.2 mg LiCl per embryo) was 9% and the “embryos with limb truncations, thalidomide-treated plus inhibitor” value [2] was 5%. The “individual limb buds with enhanced PCD (TUNEL) in thalidomide-treated embryos given inhibitor” value [3] was 24%, the “effect on juglone-induced cell death in PLBCs” value [1] was “could be inhibited” and the “effect on BMP4-induced PCD in PLBCs” value [1] was “counteracted BMP4-induced PCD in a dose-dependent manner”. The “effect on thalidomide-induced cell death in PLBCs” value [1] was “completely abrogate”, the “effect on thalidomide-induced cell death in CEFs” value [4] was “block thalidomide-induced cell death” and the “effect on thalidomide-induced cell death in HEFs” value [5] was “block thalidomide-induced cell death”.

`CC(C)(C)[N+]([O-])=Cc1ccccc1` [PBN, phenyl-N-t-butylnitrone] was tested, and the “effect on juglone-induced cell death in PLBCs” value [1] was “completely reduces; also recorded: could be inhibited”, the “effect on BMP4-induced PCD in PLBCs” value [1] was “no significant effect; also recorded: did not influence” and the “effect on thalidomide-induced cell death in PLBCs” value [1] was “completely reduces; also recorded: completely inhibited”. The “effect on up-regulation of Bmp4 and Dkk1 expression in thalidomide-treated PLBCs” value ([6]; pre-treatment with PBN, data not shown) was “abolishes the up-regulation” and the “effect on up-regulation of Bmp4 and Dkk1 expression in thalidomide-treated HEFs” value ([7]; pre-treatment with PBN) was “abolishes the up-regulation”.

With `O=C1NC(=O)c2ccccc21` [phthalimide] the “limb or eye defects” value [8] was “did not cause limb or eye defects”, the “Bmp and Dkk1 expression in limb buds” value [9] was “not altered” and the “induction of PCD in PLBCs” value [1] was “did not induce PCD”. For the same molecule, the “potential to induce PCD in HEFs” value [5] was “did not induce PCD”, the “expression of Bmp4 and Dkk1 in PLBCs” value ([6]; 10 μg/ml, six hours) was “did not influence the expression” and the “expression of Bmp4 and Dkk1 in HEFs” value ([7]; 10 μg/ml, six hours) was “did not influence the expression”.

For “recombinant DKK1: recombinant human DKK1, positive control in the TOPflash assay”, the “effect on Wnt3a-induced TOPflash activity” value [10] was “clearly counteracted”.

B1: Noggin: recombinant Noggin, an inhibitor of Bmp signaling (protein, UniProt P97466 28-232, looked up)
Noggin: QHYLHIRPAPSDNLPLVDLIEHPDPIFDPKEKDLNETLLRSLLGGHYDPGFMATSPPEDRPGGGGGPAGGAEDLAELDQLLRQRPSGAMPSEIKGLEFSEGLAQGKKQRLSKKLRRKLQMWLWSQTFCPVLYAWNDLGSRFWPRYVKVGSCFSKRSCSVPEGMVCKPSKSVHLTVLRWRCQRRGGQRCGWIPIQYPIISECKCSC
For B1, the “embryos with limb truncations, thalidomide-treated plus inhibitor” value [2] was 5%, the “effect on juglone-induced cell death in PLBCs” value [1] was “could be inhibited” and the “effect on thalidomide-induced cell death in PLBCs” value [1] was “only a partial neutralization; also recorded: clearly reduced”. For the same molecule, the “effect on thalidomide-induced cell death in CEFs” value [4] was “block thalidomide-induced cell death” and the “effect on thalidomide-induced cell death in HEFs” value [5] was “block thalidomide-induced cell death”.
